# Reference: paper PMC10897015, “Investigation of anti-nociceptive, anti-inflammatory potential and ADMET studies of pure compounds isolated from Isodon rugosus Wall. ex Benth” (Frontiers in Pharmacology, 2024)
# Several values for one entry are separate records, joined by “and”; a condition that tells them apart may be missing. Equal values may be shown once. Marks after values point to notes of the source that are not given here.
# How the values were obtained:
# Swiss albino mice [1] = test: Hot plate test, involvement of adrenergic receptors; type: in vivo; conditions: single animals
# Protocol: The analgesic effects of the isolated compounds were measured using the hot plate method at a monitored temperature of 55 ± 0.2°C. The Swiss albino mice were positioned on the heated surface of the hot plate, and the period from placement to the onset of licking their hind paws or starting jump movements was noted as the response latency (thermal reactions). The test compounds were injected intraperitoneally. […] The animal models were checked for thermal reactions at various time intervals after sample administration.
# The outcomes of the positive control and tested compounds were compared in animals pretreated with yohimbine. […] Additionally, clonidine at a dose of 3 μg/kg was intravenously administered. The animals were then subjected to the hot plate method, as reported before.
# 5-LOX = target: T1, 5-LOX (Glycine max, UniProt P08170); test: Lipoxygenase (5-LOX) inhibitory activity; type: biochemical
# T1 sequence (P08170 1-839): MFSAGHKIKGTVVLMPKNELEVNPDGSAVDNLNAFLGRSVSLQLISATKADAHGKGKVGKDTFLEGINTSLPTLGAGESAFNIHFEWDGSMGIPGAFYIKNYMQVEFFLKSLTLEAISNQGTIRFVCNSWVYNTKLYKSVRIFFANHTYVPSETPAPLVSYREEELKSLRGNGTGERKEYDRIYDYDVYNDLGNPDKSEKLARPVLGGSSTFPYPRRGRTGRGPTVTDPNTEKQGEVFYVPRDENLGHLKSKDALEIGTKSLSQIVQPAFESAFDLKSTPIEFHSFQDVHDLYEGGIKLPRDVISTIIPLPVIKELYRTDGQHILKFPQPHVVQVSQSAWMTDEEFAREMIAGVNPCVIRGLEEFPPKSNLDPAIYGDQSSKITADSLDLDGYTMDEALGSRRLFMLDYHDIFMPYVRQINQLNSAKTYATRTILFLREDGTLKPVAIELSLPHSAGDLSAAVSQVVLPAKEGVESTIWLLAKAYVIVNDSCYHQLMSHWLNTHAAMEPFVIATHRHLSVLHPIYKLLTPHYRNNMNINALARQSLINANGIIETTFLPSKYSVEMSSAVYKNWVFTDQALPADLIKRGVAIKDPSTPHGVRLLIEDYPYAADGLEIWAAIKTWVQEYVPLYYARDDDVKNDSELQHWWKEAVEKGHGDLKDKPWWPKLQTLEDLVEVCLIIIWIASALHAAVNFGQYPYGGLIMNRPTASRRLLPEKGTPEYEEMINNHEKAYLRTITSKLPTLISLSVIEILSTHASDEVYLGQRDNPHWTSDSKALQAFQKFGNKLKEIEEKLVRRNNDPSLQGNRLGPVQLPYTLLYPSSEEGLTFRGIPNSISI
# Protocol: The enzyme solution with a concentration of 10,000 U/ml was prepared. […] A solution (80 mM) of linoleic acid (substrate) was made. Likewise, a 50 mM phosphate buffer solution with a pH of 6.3 was prepared. The substrate, enzyme, and buffer were combined in equal proportions, each in a 2 ml volume. […] The inhibition percentage was determined by comparing the absorbance of the test samples with that of the positive control.
# mice = test: Carrageenan-induced paw edema; type: in vivo; conditions: for % edema volume inhibition (mean): aspirin 10 mg/kg; for Paw edema percent inhibition, individual values / Paw edema, individual values: single animals
# Protocol: The animals under study were divided into different groups. Prior to the experiment, the animals had only access to water. […] Additionally, the isolated compounds being tested were given 30 min before injecting 0.05 ml of 1% carrageenan into the sub-plantar region of the paw. To measure the volume changes in the paw, a digital plethysmometer was employed. Readings were taken before and after the carrageenan injection at hourly intervals over a total period of 5 h.
# Swiss albino mice [2] = test: Acetic acid-induced writhing test; type: in vivo; conditions: for % analgesic activity (writhing inhibition) / Mean writhes: dose 10 mg/kg, oral; for Mean writhes: writhes counted 5-30 min after acetic acid, 10 mg/kg
# Protocol: An anti-nociceptive assessment was performed on Swiss albino mice of both sexes, sourced from the National Institute of Health, Islamabad, Pakistan. […] Mice of either sex were divided into different groups, with five mice in each group. The test samples were carefully administered orally, with doses of 250, 500, 1000, and 2000 mg/kg.
# I. rugosus was evaluated for its analgesic potential through an acetic acid-induced writhing test. Oral administration of the test samples was carried out using specified doses. After 30 min of interval, 10 ml/kg of acetic acid (0.6%) was injected into the mice. Group I served as the control and received 0.5% Tween-80 (3 ml/kg), group II received diclofenac sodium (10 mg/kg), and groups III and IV received test compounds. The count of writhes was recorded between 5 and 30 min, following the i/p injection of acetic acid ([Franzotti et al., 2000]).
smiles,measurement,setting,value
"Clc1cccc(Cl)c1N=C1NCCN1 [Clonidine, reference compound]","Hot plate analysis (adrenergic), individual values",Swiss albino mice [1]; 30 Minutes,9.56 and 8.88 and 10.88
same,"Hot plate analysis (adrenergic), individual values",Swiss albino mice [1]; 45 Minutes,10.6 and 9.32 and 10.99
same,"Hot plate analysis (adrenergic), individual values",Swiss albino mice [1]; 15 minutes,9.26 and 10.12 and 10.98
same,"Hot plate analysis (adrenergic), individual values",Swiss albino mice [1]; 60 minutes,8.2 and 10.01 and 7.59
same,"Hot plate analysis (adrenergic), individual values",Swiss albino mice [1]; 90 minutes,8.4 and 10.26 and 9.3
"CC(c1cc2ccccc2s1)N(O)C(N)=O (stereo not shown) [Zileuton, reference compound]",inhibition at 62.5 µg/mL,"5-LOX; read-out: % inhibition 5-LOX (mean ± SEM), 62.5 µg/ml",79.8 ± 0.37%
same,inhibition at 250 µg/mL,"5-LOX; read-out: % inhibition 5-LOX (mean ± SEM), 250 µg/ml",88.98 ± 0.85%
same,inhibition at 500 µg/mL,"5-LOX; read-out: % inhibition 5-LOX (mean ± SEM), 500 µg/ml",92.22 ± 0.11%
same,inhibition at 1000 µg/mL,"5-LOX; read-out: % inhibition 5-LOX (mean ± SEM), 1000 µg/ml",95.2 ± 0.15%
"CC(=O)Oc1ccccc1C(=O)O [Aspirin, aspirin, reference compound]",% edema volume inhibition (mean),mice; 1st hour after carrageenan,51.772%
same,% edema volume inhibition (mean),"mice; 1st hour after carrageenan, listed as aspirin",51.77 ± 0.10%
same,% edema volume inhibition (mean),mice; 2nd hour after carrageenan,56.106%
same,% edema volume inhibition (mean),mice; 3rd hour after carrageenan,57.334%
same,% edema volume inhibition (mean),mice; 4th hour after carrageenan,60.956%
same,% edema volume inhibition (mean),mice; 5th hour after carrageenan,57.694%
same,% edema volume inhibition (mean),"mice; 5th hour after carrageenan, listed as aspirin",57.77 ± 0.40%
same,"Paw edema percent inhibition, individual values",mice; hour 1,52.34% and 51.04% and 52.35% and 51.83% and 51.3%
same,"Paw edema, individual values",mice; hour 1,0.362 and 0.375 and 0.365 and 0.369 and 0.373
same,"Paw edema percent inhibition, individual values",mice; hour 2,59.13% and 52.65% and 58.06% and 56.7% and 53.99%
same,"Paw edema, individual values",mice; hour 2,0.302 and 0.349 and 0.31 and 0.32 and 0.34
same,"Paw edema percent inhibition, individual values",mice; hour 3,59.52% and 56.85% and 58.59% and 57.12% and 54.59%
same,"Paw edema, individual values",mice; hour 3,0.304 and 0.322 and 0.311 and 0.341
same,"Paw edema percent inhibition, individual values",mice; hour 4,63.3% and 60.42% and 61.07% and 60.88% and 59.11%
same,"Paw edema, individual values",mice; hour 4,0.275 and 0.301 and 0.297 and 0.312
same,"Paw edema percent inhibition, individual values",mice; hour 5,59.25% and 55.95% and 53.49% and 59.23% and 60.55%
same,"Paw edema, individual values",mice; hour 5,0.298 and 0.322 and 0.34 and 0.289
"O=C(O)Cc1ccccc1Nc1c(Cl)cccc1Cl [Positive control, diclofenac sodium, reference compound]","Writhes, individual values","Swiss albino mice [2]; 10mg, single animals",16.1 and 17.8 and 15.6
same,% analgesic activity (writhing inhibition),Swiss albino mice [2],73.02^*** %
same,% analgesic activity (writhing inhibition),Swiss albino mice [2]; listed as positive control,73.02%
same,Mean writhes,Swiss albino mice [2],16.5 ± 0.76
same,Mean writhes,Swiss albino mice [2]; listed as Positive Control,16.5
